The subject of assay [1] is glutamate. The experiment in a line: Glutamate secretion from LPS-activated microglial cells. Type of assay: cell-based, rat. Conditions: LPS 100 ng/mL, 20 h. How it is done: For glutamate measurements, 3.5×10^4 cells/well were plated on a 24-well tissue culture plate. After 24 h of incubation in DMEM containing 10% FBS, cells were stimulated with LPS (100 ng/mL) and treated with different concentrations of achillolide A. Conditioned media were collected twenty hours later, and were tested for glutamate levels using a colorimetric enzymatic assay kit (glutamate assay kit, BioVision, CA, USA) according to the manufacturer's instructions. 7. Measure the levels of glutamate using a colorimetric enzymatic assay kit (glutamate assay kit, BioVision, CA, USA) according to the manufacturer's instructions. Microglial cells were treated with the indicated concentrations of achillolide A, followed by stimulation with LPS (100 ng/mL). After 20 h, conditioned media were collected and tested for glutamate levels by a commercial kit. Values represent the means±SEM (n=4 for each treatment). ** p<0.01; *** p<0.001, compared to LPS-stimulated cells.

Assay [2] relates to TNFα. Description: TNFα transcripts in LPS-stimulated microglial cells (real-time PCR). Format: cell-based, rat. Conditions: 20 μg/mL; LPS 4.5 ng/mL, 5 h. The protocol:
(§1) RNA was extracted by the RNeasy Plus Mini Kit (Qiagen, Hilden, Germany) according to the manufacturer's instructions. Genomic DNA was removed from the RNA samples by using 50 units of RNase-free DNaseI at 37° C. for 1 h. RNA ([…]) was converted to cDNA using the Thermo Scientific Verso cDNA kit (Thermo Fisher Scientific Inc) following the manufacturer's protocol. The cDNA was used for quantitative real-time PCR amplification with TaqMan chemistry (Applied Biosystems) using Rat MMP9, TNFα, IL1β, iNOS, COX2 pre-designed TaqMan Gene Expression Assay from Applied Biosystems (Rn00579162_m1, Rn00562055_m1, Rn00580432_m1, Rn00561646_m1, Rn01483828_m1, respectively). […] All results from three technical replicates were normalized relative to α-Tubulin (Rn01532518.g1) and GAPDH (Rn01775763.g1), respectively, and expressed as relative expression ratios calculated (relative quantity, RQ) using the comparative method and based on the data that were created by the ABI PRISM 7700 Sequence Detection System (using version 1.6 software).
(§2) Procedure 23. Measurement of IL-1Beta, TNFalpha, iNOS, COX-2 and MMP-9 Transcripts in LPS-Activated Microglial Cells by Quantitative Real-Time PCR Analysis. • 1. […]
(§3) Microglial cells were treated with 20 μg/mL of achillolide A, followed by stimulation with LPS (4.5 ng/mL). […] The results are expressed as percentages relative to LPS-stimulated cells. […]
A general note: Real-time PCR tracks product formation cycle by cycle.

Assay [3] deals with LPS-activated splenocytes. Description: Cytokine secretion from LPS-activated splenocytes (ELISA). Type of assay: cell-based, mouse. Conditions: LPS 5 μg/mL; 24 h (IL-2) or 48 hr. How it is done:
1. Sacrifice Balb/c mice by decapitation. 2. Remove spleens from mice, pool, and squeeze to single cell suspension 3. Lyse red blood cells using lysis buffer, and wash cells several times. 4. Plate splenocytes (5×10^6 cells/well) on a 24-well tissue culture plate, in DMEM containing 10% FBS, 2 mM glutamine, 100 U/ml penicillin and 100 micrograms/mL streptomycin; 5. Treat cells with freshly diluted AcA of the invention; 6. Activate […] with lipopolysaccharide (LPS, 5 micrograms/mL); 7. Collect conditioned media for the measurement of cytokine levels; IL-2, after 24 h; IFNγ, TNF-α, IL-10, IL-12 and IL-6 after 48 hr. 8. Measure the levels of cytokines by ELISA; Ten naive Balb/c mice were sacrificed by decapitation. […] Spleens were removed from mice, pooled and squeezed to single cell suspension. Red blood cells were lysed using lysis buffer, cells were washed several times, and were plated (5×10^6 cells/well/ml) on a 24-well tissue culture plate. Cells were then stimulated with LPS (5 μg/mL) in the presence or absence of achillolide A. Conditioned media of the cells were collected for analysis: IL-2, after 24 h; IFNγ, TNF-α, IL-10, IL-12 and IL-6 after 48 hr. Cytokine levels were measured by ELISA in supernatants collected at the indicated time points. Data represent the mean±SEM from two different experiments performed in duplicates. […]

The test system of assay [4] is iNOS. The experiment in a line: iNOS transcripts in LPS-stimulated microglial cells (real-time PCR). Format: cell-based, rat. Conditions: 20 μg/mL; LPS 4.5 ng/mL, 5 h. The protocol:
as §1, §2, §3

Each structure is given as a SMILES string.

As for `C=C1CCC2=C(CO)C(=O)O[C@H]2/C=C(\C)[C@H](OC(C)=O)CC1=O` [achillolide A], the “inhibition of the LPS-induced levels of secreted glutamate” value in assay [1] came out at 80%. In assay [2], the “effect on LPS-induced TNFα transcript levels” value is “significantly inhibited”. Besides, the “effect on cytokine secretion (IL-2, IFNγ, TNF-α, IL-10, IL-12, IL-6)” value in assay [3] is on record as “Downregulates”. In addition, the “effect on LPS-induced iNOS transcript levels” value in assay [4] is given as “significantly inhibited”.
